The NIST ThermoML archive (doi:10.1021/je060371g)

Conditions: Fluid (supercritical or subcritical phases), Buoyancy - hydrostatic balance with magnetic suspension - one sinker

FC(F)Cl [chlorodifluoromethane]
specific volume [m3/kg]
Conditions	423.2 K	473.2 K	523.2 K	573.2 K
10000 kPa	0.002006	0.003216	0.004117	0.004957
20000 kPa	0.001169	0.001531	0.001932	0.00244
30000 kPa	0.001037	0.00121	0.001431	0.001751
40000 kPa	0.000973	0.001089	0.001241	0.001393
50000 kPa	0.000923	0.001015	0.001126	0.001258
75000 kPa	0.000856	0.000922	0.000987	0.00105
100000 kPa	0.000814	0.000867	0.00092	0.000968
125000 kPa	0.000784	0.00083	0.000872	0.000911
150000 kPa	0.000759	0.000797	0.000835	0.00087
175000 kPa	0.000738	0.000772	0.000808	0.00084
200000 kPa	0.000721	0.000754	0.000785	0.000814
225000 kPa	0.000707	0.000735	0.000764	0.00079
250000 kPa	0.000695	0.00072	0.000744	0.000767
275000 kPa	0.000682	0.000705	0.000728	0.000749
300000 kPa	0.000673	0.000694	0.000714	0.000732
325000 kPa	0.000661	0.000683	0.000698	0.000717
350000 kPa	0.000655	0.000671	0.000687	0.000704
375000 kPa	0.000645	0.000661	0.000676	0.000692
400000 kPa	0.000638	0.000652	0.000666	0.00068
425000 kPa	0.000631	0.000644	0.000658	0.000671
450000 kPa	0.000625	0.000637	0.000649	0.000663
475000 kPa	0.000619	0.000629	0.00064	0.000651
500000 kPa	0.000614	0.000623	0.000633	0.000643
